The test system of this experiment is Plasmodium berghei. Briefly: Antimalarial activity against Plasmodium berghei infected mice (Mus musculus) at 30 mg/kg peroral dose. Format: functional, organism-based. Set-up: dose 30 mg/kg.

The source made the active and inactive calls. The rule behind the calls is not given here.

Take `C[C@@H]1CC[C@@H]2[C@]34OO[C@@](C)(CC[C@@H]13)O[C@H]4O[C@@H](O)[C@]2(C)S(C)(=O)=O`: the outcome was inactive.

With `C[C@@H]1CC[C@@H]2[C@]34OO[C@@](C)(CC[C@@H]13)O[C@H]4O[C@@H](O)[C@]2(C)S(=O)(=O)c1ccccc1`, the result was inactive.

As to `CCCCCCCCCCCCCCCCCC(=O)O[C@@H]1O[C@@H]2O[C@]3(C)CC[C@H]4[C@H](C)CC[C@H]([C@@]24OO3)[C@@]1(C)S(C)(=O)=O`, the result was inactive.

As to `C[C@@H]1CC[C@@H]2[C@]34OO[C@@](C)(CC[C@@H]13)O[C@H]4O[C@H](O)[C@@]2(C)S(C)(=O)=O`, the result was inactive.

With `CO[C@@H]1O[C@@H]2O[C@]3(C)CC[C@H]4[C@H](C)CC[C@@H]([C@@]1(C)F)[C@@]24OO3`, the outcome was inactive.

Regarding `CO[C@H]1O[C@@H]2O[C@]3(C)CC[C@H]4[C@H](C)CC[C@@H]([C@@]1(C)F)[C@@]24OO3`, the outcome was inactive.

As for `C[C@@H]1CC[C@@H]2[C@]34OO[C@@](C)(CC[C@@H]13)O[C@H]4OC(=O)[C@@]2(C)S(C)(=O)=O`, the result was inactive.

Consider `CCCCCCCCCCc1ccc(C(=O)O[C@@H]2O[C@@H]3O[C@]4(C)CC[C@H]5[C@H](C)CC[C@H]([C@@]35OO4)[C@@]2(C)S(C)(=O)=O)cc1`, for which the outcome was inactive.

For `C[C@@H]1CC[C@@H]2[C@]34OO[C@@](C)(CC[C@@H]13)O[C@H]4OC(=O)[C@]2(C)S(C)(=O)=O`, the outcome was inactive.

For `CCCCCc1ccc(C(=O)O[C@@H]2O[C@@H]3O[C@]4(C)CC[C@H]5[C@H](C)CC[C@H]([C@@]35OO4)[C@@]2(C)S(=O)(=O)c2ccccc2)cc1`, the outcome was inactive.

On to `C[C@@H]1CC[C@@H]2[C@]34OO[C@@](C)(CC[C@@H]13)O[C@H]4OC(O)[C@]2(C)F` (stereo partly specified), for which the result was inactive.

These data come from ChEMBL document CHEMBL1157174, “Electronically stabilized versions of the antimalarial acetal trioxanes artemether and artesunate” (Bioorg Med Chem, 2008).
